Drawing on ChEMBL document CHEMBL1157539, “Thousands of chemical starting points for antimalarial lead identification” (Nature, 2010), this text covers XC50 for 85 compounds.

Structures are written as SMILES.

In the test the test system is Plasmodium falciparum. The test is described as follows: GSK_TCMDC: Inhibition of Plasmodium falciparum 3D7 in whole erythrocytes, using parasite LDH activity as an index of growth. In kind it is functional, organism-based. The conditions noted are these: Plasmodium falciparum, 3D7.

Regarding `CCCCCCCCCN(CCC)C(=O)[C@@H]1OC(C(=O)OC(c2ccccc2)c2ccccc2)=C[C@H](NC(=O)OC(C)(C)C)[C@H]1NC(C)=O`, the XC50 is 640 nM.

Take `O=C(Nc1cccc(C(F)(F)F)c1)c1ccc(S(=O)(=O)NCC2CCCN2CC2CCCCC2)cc1` (stereo not given): the XC50 came out at 751 nM.

`Cc1nc(C)c(-c2ccc(S(=O)(=O)c3ccc(Cl)cc3)cc2)c(O)c1Cl` registered an XC50 of 140 nM. For `Nc1ncc(-c2cccc(CCN3CCOCC3)c2)cc1-c1nc2cc(Br)ccc2[nH]1`, the XC50 was 277 nM. Under `CC(=O)Oc1c(C2CCN(CCCCNC(=O)c3ccc(NC(=O)c4ccc(Cl)cc4)cc3)CC2)ccc2c1CCCC2` stands 764 nM; under `N#CCCN1CCN(Cc2cccc(-c3ccc(-c4nc5ccccc5[nH]4)cc3)c2)CC1`, 1020 nM. Regarding `O=C(NCCCCN1CCC(c2nc3ccccc3s2)CC1)c1cc2ccccc2[nH]1`, the XC50 came to 1020 nM. For the compound `COc1ccc2nccc([C@@H](O)CN3CCC(NCC(O)Cc4ccccc4)CC3)c2c1` (stereo not given in full), the XC50 came out at 671 nM.

Consider `Cc1ccccc1N1CCN(c2ccc(C(=O)NC(C)C)cn2)CC1`, for which the XC50 came out at 901 nM. The compound `Cc1cccc2nc(-c3ccc(-c4cccc(CN5CCN(CC6CCCN(C)C6)CC5)c4)s3)[nH]c12` (stereo not given) gave an XC50 of 121 nM. With `O=C(Nc1ccc2c(c1)CCN2C1CCN(Cc2cc(F)cc(F)c2F)C1)c1ccco1` (stereo not given) the figure was 590 nM.

`CC(C)CCN1CCC(Oc2ccc(NC(=O)c3ccsc3)cc2Cl)CC1`: the XC50 was found to be 1040 nM. As to `O=C(Nc1ccccc1)N(Cc1ccccc1-c1cccc(CNC2CCCC2)c1)C1CCN(Cc2ccccc2)CC1`, the XC50 stood at 168 nM. As for `CC(Nc1cc(-c2ccccn2)nc(-c2ccccn2)n1)c1ccccc1` (stereo not given), the XC50 is 453 nM. For the compound `Oc1ccc(CN2CCN(CCOC(c3ccccc3)c3ccc(Cl)cc3)CC2)cc1Cl` (stereo not given), the XC50 came to 858 nM. `Cc1ccccc1OCC(O)CNC1CCC(NCC(O)COc2ccccc2C)CC1` (stereo not given) yielded an XC50 of 1190 nM. `COc1ccc2nccc([C@@H](O)CN3CCC(NC(=O)C(c4cc5ccccc5o4)N4CCN(Cc5ccccc5)CC4)CC3)c2c1` (stereo not given in full) yielded an XC50 of 163 nM.

Turning to `CNc1cc(-c2ccc3ccnc(N)c3c2)nc(N)n1`, the XC50 was 119 nM. Compound `COC(=O)CCCCCOc1cc(Cc2cnc(N)nc2N)cc(OC)c1OC` yielded an XC50 of 179 nM.

On to `Cc1cnc(C(=O)Nc2cccc(-c3csc(-c4nc5ccccc5[nH]4)c3)c2)cn1`, for which the XC50 came out at 275 nM. Under `COc1cc(Cc2cnc(N)nc2N)ccc1OCc1ccc(F)c(F)c1` stands 910 nM; under `CC(C)CCCC(C)(C)NC[C@@H](O)[C@H](Cc1ccccc1)NC(=O)c1cc(NC(C)C)cc(N2CCCCS2(=O)=O)c1F`, 219 nM. In turn, `COc1cc(CCNC(=N)/C=C/c2ccc(Cl)cc2)ccc1Cl` returned an XC50 of 241 nM. `CC(=O)Oc1c(Cl)c(C)nc(C)c1-c1ccc(Oc2ccc(Cl)cc2)cc1` had an XC50 of 31.5 nM.

For `Cc1cnc(Nc2cccc(CCN3CCOCC3)c2)nc1NC(C)C`, the XC50 came to 738 nM. Consider `Cc1nnc(-c2cccc(Nc3ccnc4cc(-c5nccs5)ccc34)c2)o1`, for which the XC50 turned out to be 632 nM. Under `COc1cc(/C=N/Nc2nc(Nc3ccccc3)nc(Nc3ccccc3)n2)ccc1OCc1ccccc1[N+](=O)[O-]` stands 806 nM; under `COc1ccccc1C1CCN(C2CCC(NC(=O)/C=C/c3cc(C(F)(F)F)cc(C(F)(F)F)c3)CC2)CC1` (stereo not given), 1200 nM. For `CN1CCN(CCCN(Cc2csc(-c3ccc(CNCc4ccccc4)cc3)n2)C(=O)c2cc(F)cc(F)c2)CC1`, the XC50 came to 708 nM. `COCCn1c(-c2cccc(Cl)c2)nn(-c2ccc([N+](=O)[O-])cc2C#N)c1=S` had an XC50 of 178 nM.

`CN(C)CCCNc1c2ccccc2nc2ccccc12`: the XC50 came to 1040 nM. In turn, `Cc1cc2cc(CNCCc3ccccc3Br)ccc2nc1N` displayed an XC50 of 243 nM. Compound `c1cc(CN2CCCCC2)cc(-c2csc(-c3nc4ccccc4[nH]3)c2)c1` gave an XC50 of 848 nM. Take `O=C(Nc1cccc(CN2CCCN(Cc3ccc(F)cc3)CC2)c1)c1cc2ccccc2s1`: the XC50 was determined as 794 nM. The compound `CC(C)NCc1ccc(-c2cccc(NC(=O)c3ccc(C#N)cc3)c2)cc1` came in with an XC50 of 740 nM.

`CC(=O)c1cccc(NC(=O)C2c3ccccc3C(=O)N(CC(C)C)C2c2cccs2)c1` (stereo not given) returned an XC50 of 590 nM.

Consider `Cc1cc(C(=O)Nc2ccc3c(ccn3C3CCCN(Cc4ccc(C(F)(F)F)cc4F)CC3)c2)no1` (stereo not given), for which the XC50 was found to be 765 nM.

Compound `FC(F)(F)c1ccc2c(NCCNc3ccnc4cc(C(F)(F)F)ccc34)ccnc2c1` registered an XC50 of 32.7 nM.

Take `CCn1ncc2c(N3CCCC3=O)cc(C(=O)N[C@@H](Cc3ccccc3)[C@H](O)CNC(C)(C)c3cccc(C(F)(F)F)c3)cc21`: the XC50 was 149 nM. On to `CC(CN1CCN(C)CC1)C(=O)Nc1ccc(-c2ccc(-c3nc4cc(F)ccc4[nH]3)cc2)cc1` (stereo not given), for which the XC50 was found to be 792 nM. Compound `O=C(/C=C/c1ccc2ccccc2c1)NCC1(c2ccc(-c3ccccc3)cc2)CCOCC1` displayed an XC50 of 1520 nM. Under `NC1CCN(c2cnn(Cc3cccc(NC(=O)Nc4ccc(-c5ccccc5)cc4)c3)c(=O)c2Cl)CC1` stands 1140 nM. `CCOC(=O)c1nc(-c2cc(Cl)nc(Cl)c2)[nH]c1NC(=S)NCCCN1CCOCC1` yielded an XC50 of 925 nM. Take `CCc1nc2c(cnn2CC)c(NC2CCOCC2)c1CNC(=O)N1CCOCC1`: the XC50 was 892 nM. `Cc1cc(-c2ccc(NC(=O)N3CCc4cc(Cl)c(N5CCN(C)CC5)cc43)cc2)ccc1C#N`: the XC50 stood at 589 nM. `CCCC1N=C(N)N=C(N)N1c1ccccc1` (stereo not given) showed an XC50 of 823 nM. For `O=C(/C=C/c1ccc(Cl)c(Cl)c1)N1CCC(CN2CCC(c3cn(CC(=O)N4CCCCC4)c4ccccc34)CC2)CC1`, the XC50 came to 750 nM. Turning to `COc1cc(NC(=O)c2ccc3c(=O)n(Cc4ccccc4)c(=S)[nH]c3c2)cc(OC)c1OC`, the XC50 was determined as 743 nM. Under `Cc1ccc(CNC(=O)c2ccc(CN3CCCN(Cc4ccsc4)CC3)cc2)cc1` stands 868 nM; under `N=C(N)NCCCN(Cc1ccccc1)c1ccc(Cl)cc1`, 564 nM. Under `O=C(Nc1cccc(CN2CCN(Cc3cccc(O)c3)CC2)c1)c1cc2ccccc2s1` stands 1120 nM; under `CC(C)(C)c1ccc(NC(=O)c2ccc(CN3CCCN(CC4CCCCC4)CC3)cc2)cc1`, 542 nM; under `N#Cc1cccc(-c2cccc(C(=O)NC3CCC(CCN4CCc5ccc(C#N)cc5CC4)CC3)c2)c1` (stereo not given), 265 nM. Under `COc1ccc2nccc([C@@H](O)CN3C4CCC3CC(NCc3ccc5c(n3)NC(=O)CS5)C4)c2n1` (stereo not given in full) stands 934 nM.

`O=C(C=Cc1ccc(Cl)c(Cl)c1)NCCCCCN1CCCC(CCCNC(=O)/C=C/c2ccccc2)C1` (stereo not given) yielded an XC50 of 593 nM. The compound `O=C(Nc1cccc(OC2CCN(Cc3ccc(F)cc3)CC2)c1)c1ccc(C(F)(F)F)cc1` returned an XC50 of 952 nM. `COc1ccc(C(=O)CC(=O)c2ccc(OC)cc2OC)c(OC)c1` showed an XC50 of 300 nM. Under `CNC(=O)c1cc(NCCCNCc2ccc(Cl)c(C(F)(F)F)c2)nc2ccccc12` stands 931 nM.

The compound `Cc1cccc2nc(-c3cccc(-c4ccc(NC(=O)Nc5ccc6c(c5)OCO6)cc4)c3)[nH]c12` registered an XC50 of 145 nM. For the compound `COc1ccc2nccc(N(C)CC3(O)CCC(NCc4ccc5c(n4)NC(=O)CS5)CC3)c2n1` (stereo not given), the XC50 stood at 700 nM. `COc1ccc(CNCc2ccccc2)cc1-c1ccc(OC)c(S(=O)(=O)NCCN2CCCC2)c1` returned an XC50 of 827 nM. `COc1cc(NC(=O)NC(CCN2CCC3(CCc4ccccc43)CC2)c2ccc(Cl)c(Cl)c2)cc(OC)c1OC` (stereo not given) displayed an XC50 of 679 nM.

The compound `CN(C)Cc1cccc(-c2ccc(NC(=O)c3ccc4c(=O)n(Cc5ccoc5)cnc4c3)cc2)c1` gave an XC50 of 770 nM. In the case of `Cc1ccc(C)c(N2CCN(Cc3ccccc3O)CC2)c1`, the XC50 was 940 nM. In turn, `CCOC(=O)c1ccc(NC(=O)N(Cc2ccc(-c3ccc(CN4CCNCC4)cc3)cc2)Cc2cccnc2)cc1` gave an XC50 of 926 nM.

On to `Cn1nc(-c2ccc(S(=O)(=O)N3CCC(CCN4CCC(c5c[nH]c6ccccc56)CC4)CC3)s2)cc1C(F)(F)F`, for which the XC50 was determined as 815 nM. Under `CCOc1ccc(C(=O)N2CCOC(CCN3CCC(c4ccccc4)CC3)(c3ccc(Cl)c(Cl)c3)C2)cc1` (stereo not given) stands 854 nM; under `O=C(NC1CC1)c1ccc(N2CCOc3ccc(Cl)cc32)s1`, 803 nM; under `Cn1cc(C(=O)Nc2cccc(-c3cccc(-c4nc5ccccc5[nH]4)c3)c2)n(C)c1=O`, 715 nM.

Compound `CC(C)N1CCC(N(Cc2ccc(-c3ccc(C(F)(F)F)cc3)cc2)C(=O)Cn2c(CCc3cccc(F)c3F)cc(=O)c3ccccc32)CC1` showed an XC50 of 850 nM. The compound `COc1ccc(NC(=O)Nc2cccc(-c3ccc(-c4nc5cc(C(F)(F)F)ccc5[nH]4)cc3)c2)cc1` yielded an XC50 of 452 nM. With `O=C(/C=C/c1ccc(Cl)c(Cl)c1)NCC1CCC(CN2CCC(c3c[nH]c4ccccc34)CC2)CC1` (stereo not given) the figure was 356 nM. With `FC(F)(F)Oc1cccc(CNc2noc(-c3sccc3Br)n2)c1` the figure was 875 nM; with `Cc1cccc2nc(-c3ccc(-c4cccc(CNCCNC(=O)c5ccnn5C)c4)cc3)[nH]c12`, 396 nM; with `O=C(Nc1ccc(-c2ccccc2)cc1)Nc1cccc(Cn2cnc(N3CCCNCC3)cc2=O)c1`, 1080 nM.

In the case of `CC(=O)N1c2ccccc2C(C)=CC1(C)C`, the XC50 stood at 938 nM. `COc1cc(F)c2ncc(Cl)c(CCN3CCC(NCc4ccc5c(c4)OCCO5)CC3)c2c1` had an XC50 of 469 nM. On to `CN(Cc1ccccc1)C1CCN(CCc2c[nH]c3ccc(F)cc23)CC1`, for which the XC50 came out at 597 nM. In the case of `Cc1cc(-c2cc3nc4c(c(O)n3n2)CCCC4)c(C)o1`, the XC50 turned out to be 821 nM.

Take `O=[N+]([O-])c1ccc2nc(Nc3cccc(C(F)(F)F)c3)c(Nc3cccc(C(F)(F)F)c3)nc2c1`: the XC50 was 483 nM. With `CCOC(=O)NCC(=O)Nc1cccc(-c2cccc(-c3nc4cc(C(F)(F)F)ccc4[nH]3)c2)c1`, the XC50 is 626 nM. In the case of `FC(F)(F)c1ccc2[nH]c(-c3ccc(-c4ccc(CN5CCN(c6ccncc6)CC5)cc4)cc3)nc2c1`, the XC50 is 62.4 nM. Under `CC(C)CNCc1cccc(-c2cccc(CN(C(=O)Nc3ccccc3)C3CCN(Cc4ccccc4)CC3)c2)c1` stands 369 nM; under `CC(C)N1CCN(CCCCNc2c3ccccc3nc3ccccc23)CC1`, 540 nM; under `Clc1ccc2c(NCc3ccc4c(c3)OCO4)ccnc2c1`, 266 nM.
